Source: patent US9914750B2, “Synthetic peptides and peptide mimetics” (University of Louisville Research Foundation, priority 2007, dated 2018)
Entries after “also recorded” stand apart in the source; their conditions may differ. No end group written: not given here.

B1: PSP: human Parotid Secretory Protein (SPLUNC2, C20ORF70), SEQ ID NO:6 (protein, listed as Homo sapiens)
chain: MLQLWKLVLLCGVLTGTSESLLDNLGNDLSNVVDKLEPVLHEGLETVDNTLKGILEKLKVDLGVLQKSSAWQLAKQKAQEAEKLLNNVISKLLPTNTDIFGLKISNSLILDVKAEPIDDGKGLNLSFPVTANVTVAGPIIGQIINLKASLDLLTAVTIETDPQTHQPVAVLGECASDPTSISLSLLDKHSQIINKFVNSVINTLKSTVSSLLQKEICPLIRIFIHSLDVNVIQQVVDNPQHKTQLQTLI

Key:
sheep red blood cells = assay: Hemagglutination assay; type: cell-based; conditions: PBS, absence of serum, 2 h
Description: FIG. 22: Hemagglutination of sheep red blood cells. RBCs were washed in PBS and incubated for 2 h in microtiter plates in PBS±5% fetal calf serum. Peptide concentrations were 83 μg/ml. The microtiter plate was imaged. Agglutinated red blood cells form a wide mat of cells, while non-agglutinated cells form a button shaped pellet.
Briefly, unmodified sheep erythrocytes (Cappel, M P Biomedicals, Irvine, Calif.) were washed in PBS and suspended at 1% in PBS. Diluted erythrocytes and 20 μg/ml of each peptide in PBS were mixed in polypropylene microtiter plates (120 μl per well) and incubated for 2 h at 35° C. The plates were imaged on a Kodak Image station.

[1] = system: P. aeruginosa PAO1 on MDCK cell monolayers; assay: Epithelial invasion assay, MDCK monolayer penetration; type: cell-based, Pseudomonas aeruginosa; conditions: 24 h
Description: FIG. 10. MDCK monolayer penetration: MDCK cells were cultured on filter supports and infected on the apical side with 10^6 CFU/ml of P. aeruginosa PAO1 (PAO1) or bacteria mixed with PSP peptides, as indicated. Control MDCK cells were incubated with buffer alone (HOAc). After 24 h incubation at 37° C., the OD 600 nm was determined for the media in the basolateral compartment to detect bacterial penetration of the MDCK cell monolayer.
To determine if PSP peptides prevent the penetration of epithelial cell monolayers, the epithelial cell line MDCK was cultured on permeable membrane filters. P. aeruginosa were added to the apical medium of confluent MDCK cell monolayers and bacterial penetration was determined as the number of bacteria recovered from the basolateral medium after a 24 h incubation.

P. aeruginosa PAO1 [2] = assay: Biofilm formation / bacterial adhesion assay, PVC microtiter plates, crystal violet; type: cell-based, Pseudomonas aeruginosa; conditions: 50 μg/ml, 6 h
Description: FIGS. 7A and 7B: PSP-peptides inhibit biofilm formation. P. aeruginosa PAO1 (overnight cultures, diluted 1:100 were incubated with 50 μg/ml of each peptide (LL37, GK7, GL13, KL11) or lysozyme for 6 h under aerobic (FIG. 7A) or reduced oxygen (anaerobic) (FIG. 7B) conditions. The OD 570 (growth) was determined and the attached cells were then quantitated by staining with crystal violet (biofilm). Growth and biofilm values were normalized against the mean of samples without peptides (HOAc) and expressed as mean±SEM. The data in panel A are from three independent experiments, N=22−24. The data in panel B are from two independent experiments, N=16. Lysozyme (Lyz) data are from a single experiment, N=8. *) different from Growth, P<0.002
(§1) Overnight cultures of P. aeruginosa PAO1 were diluted 1:100 in MHB and 100 μl/well were incubated with 5 μl of LL-37, GK-7, GL-13, KL-11 or lysozyme (1 mg/ml) in PVC microtiter plates. The plates were incubated for 6 h at 32° C. under aerobic or reduced oxygen conditions. Bacterial growth was quantitated spectrophotometrically at 570 nm. Twenty-five μl of 1% crystal violet in dH2O was added to each well and incubated 20 min at room temperature. The wells were emptied and washed three times in dH2O and then incubated for 30 min with 200 μl of 95% ethanol. The OD at 570 nm was determined as a measure of biofilm formation. Growth and biofilm values were normalized against the mean of samples incubated with 0.01% acetic acid without peptides.
as §1, with “μl of the bacterial suspension was mixed” for “μl/well were incubated”, “50 μg/ml” for “5 μl”, “lysozyme” for “lysozyme (1 mg/ml)”

P. aeruginosa = assay: Antibacterial activity in vivo, Romaine lettuce infection model; parameters: species or system Pseudomonas aeruginosa; conditions: 200 μg/ml peptide injected with bacteria, scored after 2-3 days
Description: FIG. 4: Antibacterial activity in vivo. Romaine lettuce leaves were injected with P. aeruginosa (10^8 cells/nil) in the presence or absence of 200 μg/ml of antibacterial peptides. After 2-3 days incubation the injection sites were scored for infection on a scale of 0-100% relative to the no-bacteria (0% infection) and bacteria-only controls (PAO1) (100%). Data are from six independent experiments and are shown as mean±SEM, N=4−12. *) P<0.04, **) P<0.003.
Romaine lettuce heads were purchased from local grocery stores. Outer leaves were removed and undamaged leaves were selected. The leaves were rinsed in 0.1% bleach and incubated in plastic containers on filter paper moistened with 10 mM MgSO4. Overnight cultures of P. aeruginosa were diluted to 10^8 CFU/ml in 10 mM MgSO4 and supplemented with 200 μg/ml of each peptide. Ten μl (10^6 CFU, 2 μg peptide) were injected into the midrib of each leaf using a micro pipetter. Blank controls were incubated with buffer only, and bacterial controls were incubated without peptide. The plastic trays were covered and incubated at 35° C. Leaves were inspected daily for browning around the injection site or along the midrib. Generally rotting or moldy leaves were discarded. Infection was scored on a scale from 0% to 100% relative to blank controls and bacterial controls, respectively.

[3] = system: Aggregatibacter (Actinobacillus) actinomycetemcomitans JP2; type: cell-based; conditions: 4 h, reduced oxygen
Description: The PSP peptides GL13, GK7 and KL11, lysozyme, LL37 or no peptide (BLK) were incubated with P. aeruginosa (FIG. 3A) or A. actinomycetemcomitans (FIG. 3B). P. aeruginosa PAO1 (10^5 cells/ml) were incubated for 2 h at 35° C. with 10 μg/ml (open bars) or 100 μg/ml (shaded bars) of each peptide. A. actinomycetemcomitans JP2 (10^5 cells/nil) were incubated for 4 h at 37° C. under reduced oxygen conditions. Bacterial cultures were diluted and plated on LB agar (Pseudomonas) or BHI agar plates (A.a., low oxygen incubation) and surviving CFUs enumerated. The data are shown as mean±SEM, P. aeruginosa: N=8−22 at 100 μg/ml, N=2−10 at 10 μg/ml. A. actinomycetemcomitans: N=3. *) P<0.0001, **) P<0.004, ***) P<0.02
Overnight cultures of bacteria were pelleted and resuspended in 10 mM sodium phosphate, pH 7.4 (10^5 CFU/ml). Diluted bacteria (100 μl) were incubated with 10 or 100 μg/ml of each peptide in 10 mM sodium phosphate, pH 7.4. P aeruginosa PAO1 were incubated for 2 h at 35° C. while A. actinomycetemcomitans JP2 were incubated for 4 h at 37° C. under reduced oxygen conditions. […]
As a second antibacterial assay, bactericidal activity was determined by incubating the peptides (10 or 100 μg/ml) with P. aeruginosa, A. actinomycetemcomitans or S. gordonii in 10 mM phosphate buffer. […]

P. aeruginosa PAO1 [4] = assay: MIC determination, broth dilution assay (growth OD 570 nm, pelleting in wells); type: cell-based, Pseudomonas aeruginosa
Description: (§2) FIGS. 5A and 5B: PSP peptides lack bacteriostatic activity. P. aeruginosa PAO1 or A. actinomycetemcomitans JP2 (10^5 cells/ml) were incubated overnight with two-fold serial dilutions of the indicated peptides. The OD was determined at 570 nm. The data for P. aeruginosa (FIG. 5A) are representative of six independent experiments. The data for A. actinomycetemcomitans (FIG. 5B) are representative of three independent experiments. Filled squares, lysozyme; open diamonds, no peptide; open triangles, KL-11; filled triangles, GK-7; open squares, GL-13; filled diamonds, LL-37. […] Lysozyme inhibits growth about 50%. None of the PSP peptides inhibit growth.
FIG. 6A-6C: GL13 causes bacterial cell spreading. Microtiter plates used to determine bacteriostatic activity (FIG. 5) were photographed after overnight incubation with serial dilutions of the indicated peptides. The diameter of the P. aeruginosa pellets in the presence of GL13 was determined and expressed relative to the peptide concentration in each well. A. Graph of the results. B and C are representative depictions of P. aeruginosa and A. actinomycetemcomitans, respectively, spreading in the presence of PSP peptides.
The minimal inhibitory concentration (MIC) of PSP peptides was tested using the broth dilution assay. […] Bacterial growth was quantitated by the optical density (OD) at 570 nm. […]

[5] = system: A. actinomycetemcomitans JP2; assay: as above; type: cell-based, Aggregatibacter (Actinobacillus) actinomycetemcomitans
Description: as §2
The minimal inhibitory concentration (MIC) of PSP peptides was tested using the broth dilution assay. Briefly, overnight cultures of bacteria were diluted in Mueller-Hinton broth (MHB) (Difco) to 10^5 CFU/ml. Diluted bacteria (100 μl) and two-fold serial dilutions of peptides in 10 mM sodium phosphate, pH 7.4 (20 μl) were mixed in polypropylene microtiter plates and incubated for 24 h at 35° C. for P. aeruginosa or 48 h at 37° C. under reduced oxygen conditions for A. actinomycetemcomitans. Control samples were incubated with bacteria and two-fold serial dilutions of 20 μl 0.01% acetic acid in 10 mM sodium phosphate. Bacterial growth was quantitated by the optical density (OD) at 570 nm. […]

[6] = Affinity binding of PSP to LPS-Sepharose / immobilized LPS
Text: PLUNC binds LPS, as expected from its structural similarity to LPS-Binding Protein (LBP). To determine if PSP also binds LPS, the protein was expressed in GH4C1 cells and the secretion medium was used for affinity chromatography on LPS-Sepharose. After binding, the affinity matrix was washed and then eluted with PBS+0.2 g/1 EDTA. […] The results of this experiment establish that PSP is an LPS-binding protein and provides a method for purification of PSP.
Secretion medium from GH4C1 cells was loaded on LPS-Sepharose and the unbound fraction collected (this sample was divided on two lanes for PSP-WT). The column was washed and then eluted with PBS+EDTA. The eluted beads were boiled in SDS-sample buffer to release any remaining proteins.

Row | Molecule | hemagglutination (words) (sheep red blood cells) | penetration / invasion of MDCK cell monolayers by P. aeruginosa [1] | bacterial growth in biofilm/adhesion assay (P. aeruginosa PAO1 [2]; aerobic) | inhibition of biofilm formation (adhesion) (P. aeruginosa PAO1 [2]; aerobic) [%] | biofilm formation (P. aeruginosa PAO1 [2]; reduced oxygen conditions) | infection of lettuce leaves (P. aeruginosa) | survival of A. actinomycetemcomitans [3] [%] | reduction of growth of P. aeruginosa (P. aeruginosa PAO1 [4]; broth dilution assay) | MIC (P. aeruginosa PAO1 [4]; two-fold serial dilutions starting at 84 μg/ml) | biofilm formation / adhesion (P. aeruginosa PAO1 [2]; aerobic) | growth inhibition of A. actinomycetemcomitans [5] | binding of PSP to LPS [6]
1 | KLLNNVISKLL [KL11, KLLNNVISKLL] | did not cause hemagglutination | could inhibit the penetration | only a small (non-significant) reduction of bacterial growth | 40 | reduced biofilm formation under low oxygen conditions | significantly reduced the infection; also recorded: significantly inhibit P. aeruginosa infection | 40 | – | – | – | – | –
2 | lysozyme: Lysozyme (egg white) from Fisher Scientific, established antimicrobial protein [reference compound] | – | – | affected neither growth nor biofilm formation; also recorded: affected neither growth nor adhesion | – | – | significantly reduced the infection | – | about 50% | did not exhibit a defined MIC | affected neither growth nor biofilm formation; also recorded: affected neither growth nor adhesion | did not inhibit growth of A. actinomycetemcomitans | –
3 | B1 | – | – | – | – | – | – | – | – | – | – | – | quantitatively retained by the LPS affinity matrix; also recorded: bound to immobilized P. aeruginosa LPS
